Measurements: patent JP2013241470A, “ペプチド含有組成物” (Kikkoman Corp, priority 2013, dated 2013)

Biological target: T1, ACE (angiotensin converting enzyme) (アンジオテンシン変換酵素) (Oryctolagus cuniculus, UniProt P12822)
T1 construct: 0.3U/ml ACE(ウサギ肺由来、シグマ製); purchased Sigma (シグマ); host or cells: rabbit lung tissue
T1 sequence (P12822 34-1310): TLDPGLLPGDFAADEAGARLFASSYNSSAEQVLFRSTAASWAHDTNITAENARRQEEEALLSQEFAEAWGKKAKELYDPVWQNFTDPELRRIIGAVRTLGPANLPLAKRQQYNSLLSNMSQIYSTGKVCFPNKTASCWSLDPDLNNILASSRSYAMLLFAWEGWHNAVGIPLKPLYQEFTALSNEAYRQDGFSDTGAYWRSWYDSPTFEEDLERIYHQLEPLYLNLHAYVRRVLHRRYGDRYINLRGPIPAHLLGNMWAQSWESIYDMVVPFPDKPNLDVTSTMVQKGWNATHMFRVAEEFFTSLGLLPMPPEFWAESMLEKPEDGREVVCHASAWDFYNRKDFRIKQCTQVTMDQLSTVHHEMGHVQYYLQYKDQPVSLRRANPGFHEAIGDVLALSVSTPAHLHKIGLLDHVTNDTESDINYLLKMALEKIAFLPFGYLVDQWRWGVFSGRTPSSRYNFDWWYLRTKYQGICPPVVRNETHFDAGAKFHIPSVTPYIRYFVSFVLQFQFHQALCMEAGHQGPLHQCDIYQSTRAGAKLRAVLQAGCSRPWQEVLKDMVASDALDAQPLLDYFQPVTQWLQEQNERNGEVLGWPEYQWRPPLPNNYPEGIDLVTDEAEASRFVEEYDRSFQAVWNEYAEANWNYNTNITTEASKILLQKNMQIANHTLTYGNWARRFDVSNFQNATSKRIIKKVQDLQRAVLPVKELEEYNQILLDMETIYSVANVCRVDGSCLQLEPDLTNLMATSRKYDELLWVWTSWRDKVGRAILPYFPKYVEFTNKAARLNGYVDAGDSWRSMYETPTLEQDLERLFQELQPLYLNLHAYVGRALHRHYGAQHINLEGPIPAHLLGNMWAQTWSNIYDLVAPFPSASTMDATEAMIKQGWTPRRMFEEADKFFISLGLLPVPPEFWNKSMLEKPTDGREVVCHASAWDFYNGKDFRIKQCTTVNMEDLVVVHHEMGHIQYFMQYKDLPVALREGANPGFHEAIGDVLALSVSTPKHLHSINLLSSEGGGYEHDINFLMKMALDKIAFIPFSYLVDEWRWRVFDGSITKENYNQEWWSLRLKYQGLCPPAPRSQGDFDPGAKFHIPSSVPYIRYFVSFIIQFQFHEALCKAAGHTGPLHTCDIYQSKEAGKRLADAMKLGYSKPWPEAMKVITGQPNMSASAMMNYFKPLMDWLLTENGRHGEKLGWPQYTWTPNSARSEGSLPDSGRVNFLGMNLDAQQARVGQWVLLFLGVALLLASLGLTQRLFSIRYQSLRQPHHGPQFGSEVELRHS
Experiment: ACE inhibitory activity (modified Cushman method, Hippuryl-His-Leu substrate)
Assay type: biochemical, rabbit

## Tyr−Thr
Chemically synthesised peptide, compared with known soybean-derived ACE inhibitory peptides (Table 1, not visible), ACE from rabbit lung, 37 °C, 30 min, pH 8.3
  ACE inhibitory activity: 既知のペプチドと比較して充分に強い活性を有している
Chromatographic fractions during isolation from composition 1 (組成物1)
  ACE inhibitory activity: 矢印で示したピークにのみ活性が見られた
